# Test results published in patent EP4763839A1 (Pamplona Therapeutics (Shenzhen) Co., Ltd., priority 2023, dated 2025).
# Target: T1, IRAK4 (Homo sapiens, UniProt Q9NWZ3)
# T1 sequence (Q9NWZ3 1-460): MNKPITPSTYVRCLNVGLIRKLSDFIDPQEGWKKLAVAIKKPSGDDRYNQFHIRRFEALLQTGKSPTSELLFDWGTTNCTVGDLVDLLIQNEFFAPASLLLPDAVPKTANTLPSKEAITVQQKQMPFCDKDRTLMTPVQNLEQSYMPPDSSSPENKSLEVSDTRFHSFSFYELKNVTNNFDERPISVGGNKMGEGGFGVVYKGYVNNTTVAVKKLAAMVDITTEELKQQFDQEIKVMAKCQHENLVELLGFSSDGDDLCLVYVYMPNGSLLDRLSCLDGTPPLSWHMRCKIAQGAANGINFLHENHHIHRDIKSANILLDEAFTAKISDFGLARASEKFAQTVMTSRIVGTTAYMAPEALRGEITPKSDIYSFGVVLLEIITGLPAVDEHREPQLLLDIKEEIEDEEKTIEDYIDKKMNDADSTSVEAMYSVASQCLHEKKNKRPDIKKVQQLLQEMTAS
# Assay: Assay for inhibitory effect of compound on IRAK4 kinase activity (KinEASE-STK S1 HTRF kit)
# Assay type: biochemical
# Details: kinase 8 nM, ATP 80 µM, 37°C 90 minutes; read-out: IRAK4 HTRF IC50
# Description: Example 1: Kinase activity assay
# Assay for inhibitory effect of compound on IRAK4 kinase activity
# The inhibitory effect of the compound on IRAK4 kinase activity was measured using the KinEASE-STK S1 serine/threonine kinase kit (Cisbio). The specific method was as follows: the compound was dissolved in dimethyl sulfoxide and then subjected to 3-fold serial dilution in dimethyl sulfoxide, yielding final test compound concentrations in the reaction system ranging from 5,000 nM to 0.0254 nM. The kinase at a final concentration of 8 nM was added, followed by incubation at rt for 15 minutes. Subsequently, biotinylated STK1 substrate at a final concentration of 400 nM and adenosine triphosphate (ATP) at a final concentration of 80 µM were sequentially added, and the mixture was incubated at 37°C for 90 minutes. Then, the reaction was terminated by adding an anti-phosphoserine/threonine antibody conjugated with a europium cryptate and streptavidin-conjugated XL665 to the reaction system. After incubation at rt for 1 hour, the fluorescence intensity at emission wavelengths of 620 nm and 665 nm for each well was measured using an EnVision microplate reader (PerkinElmer) in HTRF mode. The ratio value was calculated using the formula: Ratio = (665 nm/620 nm)×10^4 The inhibition rate of the compound at each concentration was calculated using the formula: Inhibition% = [1-(Signal sample-Signal min)/(Signal max-Signal min)]×100. Subsequently, the dose-response curve was fitted by nonlinear curve fitting of log concentration versus inhibition rate using Fit Modela (205) in XLfit to give the IC50 value of the compound for inhibition of protein activity.
row,IC50,Compound
1,100 to 1000 nM,"CS(=N)(=O)c1nn(-c2ccccc2)cc1NC(=O)c1cccc(-c2cc[nH]n2)n1 (stereo not drawn) [Compound A96, N-(3-(S-methylsulfonimidoyl)-1-phenyl-1H-pyrazol-4-yl)-6-(1H-pyrazol-3-yl)picolinamide]"
2,< 100 nM,"CS(=N)(=O)c1nn(-c2ccccc2)cc1NC(=O)c1cccc(-c2cn[nH]c2)n1 (stereo not drawn) [Compound A97, N-(3-(S-methylsulfonimidoyl)-1-phenyl-1H-pyrazol-4-yl)-6-(1H-pyrazol-4-yl)picolinamide]"
3,100 to 1000 nM,"CS(=N)(=O)c1nn(-c2ccccc2)cc1NC(=O)c1cccc(-c2c[nH]cn2)n1 (stereo not drawn) [Compound A98, 6-(1H-imidazol-4-yl)-N-(3-(S-methylsulfonimidoyl)-1-phenyl-1H-pyrazol-4-yl)picolinamide]"
4,< 100 nM,"CC(C)(O)c1nn(C2CC3(CCNCC3)C2)cc1NC(=O)c1ccc2cc(C#N)cnn12 [Compound A106, 3-Cyano-N-(3-(2-hydroxypropan-2-yl)-1-(7-azaspiro[3.5]nonan-2-yl)-1H-pyrazol-4-yl)pyrrolo[1,2-b]pyridazine-7-carboxamide]"
5,> 1000 nM,"CC(C)n1cc(-c2ccccc2)nc1NC(=O)c1cccc(C(F)(F)F)n1 [Compound A107, N-(1-isopropyl-4-phenyl-1H-imidazol-2-yl)-6-(trifluoromethyl)picolinamide]"
6,> 1000 nM,"CC(C)n1nc(-c2ccccc2)nc1NC(=O)c1cccc(C(F)(F)F)n1 [Compound A108, N-(1-Isopropyl-3-phenyl-1H-1,2,4-triazol-5-yl)-6-(trifluoromethyl)picolinamide]"
7,100 to 1000 nM,NC(=O)c1nn(C2CCN(CCN3CCN(c4ccc5c(c4)C(=O)N(C4CCC(=O)NC4=O)C5=O)CC3)CC2)cc1NC(=O)c1cccc(C(F)(F)F)n1 (stereo not drawn) [Compound A109]
8,< 100 nM,NC(=O)c1nn(-c2ccc(C(=O)N3CC(CNc4ccc5c(c4)C(=O)N(C4CCC(=O)NC4=O)C5=O)C3)cc2)cc1NC(=O)c1cccc(C(F)(F)F)n1 (stereo not drawn) [Compound A110]
9,< 100 nM,"N#Cc1cnn2c(C(=O)Nc3cn(C4CC5(CCNCC5)C4)nc3C(F)F)ccc2c1 [Compound A229, 3-Cyano-N-(3-(difluoromethyl)-1-(7-azaspiro[3.5]nonan-2-yl)-1H-pyrazol-4-yl)pyrrolo[1,2-b]pyridazine-7-carboxamide]"
10,< 100 nM,"COc1nn(C2CC3(CCNCC3)C2)cc1NC(=O)c1ccc2cc(C#N)cnn12 [Compound A230, 3-Cyano-N-(3-methoxy-1-(7-azaspiro[3.5]nonan-2-yl)-1H-pyrazol-4-yl)pyrrolo[1,2-b]pyridazine-7-carboxamide]"
11,< 100 nM,N#Cc1cnn2c(C(=O)Nc3cn(-c4ccccc4)nc3C(N)=O)ccc2c1 [Compound A231]
12,< 100 nM,"CC(C)(O)c1nn(-c2ccccc2)cc1NC(=O)c1ccc2cc(C#N)cnn12 [Compound A232, 3-Cyano-N-(3-(2-hydroxypropan-2-yl)-1-phenyl-1H-pyrazol-4-yl)pyrrolo[1,2-b]pyridazine-7-carboxamide]"
13,< 100 nM,"N#Cc1cnn2c(C(=O)Nc3cn(-c4ccccc4)nc3C(F)F)ccc2c1 [Compound A233, 3-Cyano-N-(3-(difluoromethyl)-1-phenyl-1H-pyrazol-4-yl)pyrrolo[1,2-b]pyridazine-7-carboxamide]"
14,< 100 nM,"[C-]#[N+]c1cnn2c(C(=O)Nc3cn(-c4ccccc4)nc3OC)ccc2c1 [Compound A234, 3-Isocyano-N-(3-methoxy-1-phenyl-1H-pyrazol-4-yl)pyrrolo[1,2-b]pyridazine-7-carboxamide]"
15,< 100 nM,N#Cc1cnn2c(C(=O)Nc3cn(C4CCCCC4)nc3C(N)=O)ccc2c1 [Compound A235]
16,100 to 1000 nM,"O=C(Nc1cn(-c2ccccc2)nc1C(=O)CC(F)(F)F)c1cccc(-c2ccn[nH]2)n1 [Compound A236, N-(1-Phenyl-3-(3,3,3-trifluoropropanoyl)-1H-pyrazol-4-yl)-6-(1H-pyrazol-5-yl)picolinamide]"
17,< 100 nM,"O=C(Nc1cn(-c2ccccc2)nc1OCC(F)(F)F)c1cccc(-c2ccn[nH]2)n1 [Compound A238, N-(1-Phenyl-3-(2,2,2-trifluoroethoxy)-1H-pyrazol-4-yl)-6-(1H-pyrazol-5-yl)picolinamide]"

row,IC50,Compound
1,< 100 nM,"O=C(Nc1cn(-c2ccccc2)nc1C(F)F)c1cccc(-c2ccn[nH]2)n1 [Compound A239, N-(3-(Difluoromethyl)-1-phenyl-1H-pyrazol-4-yl)-6-(1H-pyrazol-5-yl)picolinamide]"
2,< 100 nM,"CC(C)(O)c1nn(-c2ccccc2)cc1NC(=O)c1cccc(-c2ccn[nH]2)n1 [Compound A240, N-(3-(2-Hydroxypropan-2-yl)-1-phenyl-1H-pyrazol-4-yl)-6-(1H-pyrazol-5-yl)picolinamide]"
3,< 100 nM,"CC(=O)c1nn(-c2ccccc2)cc1NC(=O)c1cccc(-c2ccn[nH]2)n1 [Compound A241, N-(3-Acetyl-1-phenyl-1H-pyrazol-4-yl)-6-(1H-pyrazol-5-yl)picolinamide]"
4,< 100 nM,"[2H]C([2H])C(=O)c1nn(-c2ccccc2)cc1NC(=O)c1cccc(-c2ccn[nH]2)n1 [Compound A242, N-(3-(Acetyl-2,2-d2)-1-phenyl-1H-pyrazol-4-yl)-6-(1H-pyrazol-5-yl)picolinamide]"
5,< 100 nM,"O=C(Nc1cn(-c2ccccc2)nc1C(=O)C(F)(F)F)c1cccc(-c2ccn[nH]2)n1 [Compound A243, N-(1-Phenyl-3-(2,2,2-trifluoroacetyl)-1H-pyrazol-4-yl)-6-(1H-pyrazol-5-yl)picolinamide]"
6,< 100 nM,"O=C(Nc1cn(-c2ccccc2)nc1C(=O)C(F)F)c1cccc(-c2ccn[nH]2)n1 [Compound A244, N-(3-(2,2-difluoroacetyl)-1-phenyl-1H-pyrazol-4-yl)-6-(1H-pyrazol-5-yl)picolinamide]"
7,> 1000 nM,"O=C(Nc1cn(-c2ccccc2)nc1C1CCN1)c1cccc(-c2ccn[nH]2)n1 (stereo not drawn) [Compound A245, N-(3-(Azetidin-2-yl)-1-phenyl-1H-pyrazol-4-yl)-6-(1H-pyrazol-5-yl)picolinamide]"
8,< 100 nM,"CNC(=O)c1nn(-c2ccccc2)cc1NC(=O)c1cccc(-c2ccn[nH]2)n1 [Compound A246, N-(3-(Methylcarbamoyl)-1-phenyl-1H-pyrazol-4-yl)-6-(1H-pyrazol-5-yl)picolinamide]"
9,100 to 1000 nM,"CC(C)NC(=O)c1nn(-c2ccccc2)cc1NC(=O)c1cccc(-c2ccn[nH]2)n1 [Compound A247, N-(3-(Isopropylcarbamoyl)-1-phenyl-1H-pyrazol-4-yl)-6-(1H-pyrazol-5-yl)picolinamide]"
10,< 100 nM,"CNS(=O)(=O)c1nn(-c2ccccc2)cc1NC(=O)c1cccc(-c2ccn[nH]2)n1 [Compound A248, N-(3-(N-Methylsulfamoyl)-1-phenyl-1H-pyrazol-4-yl)-6-(1H-pyrazol-5-yl)picolinamide]"
11,100 to 1000 nM,"CC(C)NS(=O)(=O)c1nn(-c2ccccc2)cc1NC(=O)c1cccc(-c2ccn[nH]2)n1 [Compound A249, N-(3-(N-Isopropylsulfamoyl)-1-phenyl-1H-pyrazol-4-yl)-6-(1H-pyrazol-5-yl)picolinamide]"
12,< 100 nM,"O=C(Nc1cn(-c2ccccc2)nc1C(=O)NC1CC1)c1cccc(-c2ccn[nH]2)n1 [Compound A250, N-(3-(Cyclopropylcarbamoyl)-1-phenyl-1H-pyrazol-4-yl)-6-(1H-pyrazol-5-yl)picolinamide]"
13,< 100 nM,"O=C(Nc1cn(-c2ccccc2)nc1C(=O)NC1CC1(F)F)c1cccc(-c2ccn[nH]2)n1 (stereo not drawn) [Compound A251, N-(3-((2,2-Difluorocyclopropyl)carbamoyl)-1-phenyl-1H-pyrazol-4-yl)-6-(1H-pyrazol-5-yl)picolinamide]"
14,< 100 nM,"O=C(Nc1cn(C2CCC2)nc1C(=O)NC1CC1)c1cccc(-c2ccn[nH]2)n1 [Compound A252, N-(1-Cyclobutyl-3-(cyclopropylcarbamoyl)-1H-pyrazol-4-yl)-6-(1H-pyrazol-5-yl)picolinamide]"
15,< 100 nM,"O=C(Nc1cn(C2CNC2)nc1C(=O)NC1CC1)c1cccc(-c2ccn[nH]2)n1 [Compound A253, N-(1-(Azetidin-3-yl)-3-(cyclopropylcarbamoyl)-1H-pyrazol-4-yl)-6-(1H-pyrazol-5-yl)picolinamide]"
16,100 to 1000 nM,"O=C(Nc1cn(C2CCNC2)nc1C(=O)NC1CC1)c1cccc(-c2ccn[nH]2)n1 (stereo not drawn) [Compound A254, N-(3-(Cyclopropylcarbamoyl)-1-(pyrrolidin-3-yl)-1H-pyrazol-4-yl)-6-(1H-pyrazol-5-yl)picolinamide]"
